Calls of active or inactive are those of the source. The rule behind the calls is not given here.
Key:
[1] = Apparent intrinsic clearance in mouse microsomes; type: ADME, Microsome; conditions: read-out: CL(app)
[2] = Apparent intrinsic clearance in dog microsomes; type: ADME, Canis lupus familiaris, Microsome; conditions: read-out: CL(app)
[3] = Apparent intrinsic hepatic clearance in dog hepatocytes; type: ADME, cell-based, Canis lupus familiaris, Hepatocyte; conditions: read-out: CLH(app)
[4] = Fraction unbound in mouse plasma at 2 uM by LC-MS/MS based equilibrium dialysis method; type: ADME, cell-free
[5] = Fraction unbound in dog plasma at 2 uM by LC-MS/MS based equilibrium dialysis method; type: ADME, cell-free, Canis lupus familiaris
[6] = Fraction unbound in human plasma at 2 uM by LC-MS/MS based equilibrium dialysis method; type: ADME, cell-free
CYP3A4 = CYP3A4 (Homo sapiens, UniProt P08684); assay: Inhibition of human CYP3A4 at 10 uM; type: ADME
CYP2C9 = CYP2C9 (Homo sapiens, UniProt P11712); assay: Inhibition of human CYP2C9 at 10 uM; type: ADME
CYP1A2 = CYP1A2 (Homo sapiens, UniProt P05177); assay: Inhibition of human CYP1A2 at 10 uM; type: ADME
[7] = molecular target: Voltage-gated inwardly rectifying potassium channel KCNH2 (Homo sapiens, UniProt Q12809); assay: Inhibition of human ERG
Sequence of Voltage-gated inwardly rectifying potassium channel KCNH2 (Q12809 whole entry): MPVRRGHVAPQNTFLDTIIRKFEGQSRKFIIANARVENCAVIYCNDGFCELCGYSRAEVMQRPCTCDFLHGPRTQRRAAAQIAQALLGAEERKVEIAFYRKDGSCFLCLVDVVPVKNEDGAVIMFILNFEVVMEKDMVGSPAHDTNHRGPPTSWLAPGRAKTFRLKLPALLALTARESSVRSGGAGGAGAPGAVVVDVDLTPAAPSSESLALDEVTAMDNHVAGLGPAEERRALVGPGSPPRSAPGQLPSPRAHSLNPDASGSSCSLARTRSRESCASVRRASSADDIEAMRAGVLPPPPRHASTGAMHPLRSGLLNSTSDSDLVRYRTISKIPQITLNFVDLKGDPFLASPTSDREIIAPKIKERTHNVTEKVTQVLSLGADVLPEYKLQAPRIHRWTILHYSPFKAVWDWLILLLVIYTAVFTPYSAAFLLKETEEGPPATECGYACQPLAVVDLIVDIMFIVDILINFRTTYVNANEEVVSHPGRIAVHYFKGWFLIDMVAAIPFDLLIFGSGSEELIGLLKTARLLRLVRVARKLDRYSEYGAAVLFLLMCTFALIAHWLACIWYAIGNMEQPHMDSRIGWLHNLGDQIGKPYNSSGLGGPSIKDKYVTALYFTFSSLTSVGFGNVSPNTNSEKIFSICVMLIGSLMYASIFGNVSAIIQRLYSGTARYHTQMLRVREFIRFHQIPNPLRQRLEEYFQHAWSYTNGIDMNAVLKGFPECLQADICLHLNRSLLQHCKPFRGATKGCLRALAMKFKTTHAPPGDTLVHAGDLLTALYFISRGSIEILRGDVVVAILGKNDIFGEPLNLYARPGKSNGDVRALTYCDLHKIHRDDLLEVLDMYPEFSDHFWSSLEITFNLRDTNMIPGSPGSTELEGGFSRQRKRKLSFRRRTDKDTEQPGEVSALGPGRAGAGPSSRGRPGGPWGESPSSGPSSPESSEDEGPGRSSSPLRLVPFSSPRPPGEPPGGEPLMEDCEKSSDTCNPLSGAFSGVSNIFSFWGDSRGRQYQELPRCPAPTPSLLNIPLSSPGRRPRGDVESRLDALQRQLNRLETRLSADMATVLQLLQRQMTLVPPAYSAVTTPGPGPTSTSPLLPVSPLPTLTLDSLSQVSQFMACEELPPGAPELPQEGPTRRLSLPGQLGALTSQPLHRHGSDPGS

[8] = Half life in Sprague-Dawley rat blood at 1 uM by LC-MS/MS analysis; type: ADME, tissue-based
[9] = Half life in Beagle dog blood at 1 uM by LC-MS/MS analysis; type: ADME, tissue-based, Canis lupus familiaris
[10] = Half life in human blood at 1 uM by LC-MS/MS analysis; type: ADME, tissue-based
[11] = Clearance in Nu/Nu mouse plasma at 1 mg/kg, iv administered as single dose; type: ADME, organism-based
[12] = Clearance in Wistar Han rat plasma at 1 mg/kg, iv administered as single dose; type: ADME, organism-based
[13] = Clearance in Beagle dog plasma at 1 mg/kg, iv administered as single dose; type: ADME, organism-based, Canis lupus familiaris
[14] = Volume of distribution at steady state in Nu/Nu mouse at 1 mg/kg, iv administered as single dose; type: ADME, organism-based; conditions: in vivo, read-out: Vdss
[15] = Volume of distribution at steady state in Wistar Han rat at 1 mg/kg, iv administered as single dose; type: ADME, organism-based; conditions: in vivo, read-out: Vdss
[16] = Volume of distribution at steady state in Beagle dog at 1 mg/kg, iv administered as single dose; type: ADME, organism-based, Canis lupus familiaris; conditions: in vivo, read-out: Vdss
[17] = Terminal half life in Nu/Nu mouse at 1 mg/kg, iv administered as single dose; type: ADME, organism-based; conditions: in vivo, read-out: beta t1/2 (converted)
[18] = Terminal half life in Wistar Han rat at 1 mg/kg, iv administered as single dose; type: ADME, organism-based; conditions: in vivo, read-out: beta t1/2 (converted)
[19] = Terminal half life in Beagle dog at 1 mg/kg, iv administered as single dose; type: ADME, organism-based, Canis lupus familiaris; conditions: in vivo, read-out: beta t1/2 (converted)
[20] = Oral bioavailability in Nu/Nu mouse at 1 mg/kg administered as single dose; type: ADME, organism-based; conditions: in vivo
Rattus norvegicus [21] = assay: Toxicity in rat assessed as body weight loss administered as repeated dosing for 91 days; type: organism-based; conditions: in vivo, 2184 h
Rattus norvegicus [22] = assay: Toxicity in rat assessed as effect on blood pressure administered as single dose; type: organism-based; conditions: in vivo
Rattus norvegicus [23] = assay: Toxicity in rat assessed as effect on blood pressure administered as repeated dosing; type: organism-based; conditions: in vivo
Canis familiaris [24] = assay: Toxicity in dog assessed as effect on blood pressure administered as single dose; type: organism-based, Canis lupus familiaris; conditions: in vivo
Canis familiaris [25] = assay: Toxicity in dog assessed as effect on blood pressure administered as repeated dosing; type: organism-based, Canis lupus familiaris; conditions: in vivo
Rattus norvegicus [26] = assay: Toxicity in rat assessed as effect on heart rate administered as single dose; type: organism-based; conditions: in vivo
Canis familiaris [27] = assay: Toxicity in dog assessed as effect on heart rate administered as single dose; type: organism-based, Canis lupus familiaris; conditions: in vivo
Canis familiaris [28] = assay: Toxicity in dog assessed as effect on heart rate administered as repeated dosing; type: organism-based, Canis lupus familiaris; conditions: in vivo
Canis familiaris [29] = assay: Toxicity in dog assessed as electrocardiogram changes administered as repeated dosing; type: organism-based, Canis lupus familiaris; conditions: in vivo
Rattus norvegicus [30] = assay: Toxicity in rat assessed as effect on pulmonary system functions administered as repeated dosing; type: organism-based; conditions: in vivo
Rattus norvegicus [31] = assay: Toxicity in rat assessed as effect on central nervous system functions administered as single dose; type: organism-based; conditions: in vivo
Rattus norvegicus [32] = assay: Toxicity in rat assessed as effect on central nervous system functions administered as repeated dosing; type: organism-based; conditions: in vivo
Canis familiaris [33] = assay: Toxicity in dog assessed as effect on central nervous system functions administered as repeated dosing; type: organism-based, Canis lupus familiaris; conditions: in vivo
[34] = molecular target: Tyrosine-protein kinase BTK (Homo sapiens) (UniProt Q06187); assay: Inhibition of His-tagged full-length recombinant human BTK cytoplasmic domain expressed in Baculovirus expression system at 1 uM by FRET-based Z'-LYTE assay
[35] = molecular target: Cytoplasmic tyrosine-protein kinase BMX (Homo sapiens) (UniProt P51813); assay: Inhibition of His-tagged full-length recombinant human BMX cytoplasmic domain expressed in Baculovirus expression system at 1 uM by FRET-based Z'-LYTE assay
[36] = molecular target: Tyrosine-protein kinase TXK (Homo sapiens) (UniProt P42681); assay: Inhibition of GST-tagged full-length recombinant human TXK cytoplasmic domain expressed in Baculovirus expression system at 1 uM by FRET-based Z'-LYTE assay
Sequence of Tyrosine-protein kinase TXK (Homo sapiens) (P42681 whole entry, the tested form may be a part): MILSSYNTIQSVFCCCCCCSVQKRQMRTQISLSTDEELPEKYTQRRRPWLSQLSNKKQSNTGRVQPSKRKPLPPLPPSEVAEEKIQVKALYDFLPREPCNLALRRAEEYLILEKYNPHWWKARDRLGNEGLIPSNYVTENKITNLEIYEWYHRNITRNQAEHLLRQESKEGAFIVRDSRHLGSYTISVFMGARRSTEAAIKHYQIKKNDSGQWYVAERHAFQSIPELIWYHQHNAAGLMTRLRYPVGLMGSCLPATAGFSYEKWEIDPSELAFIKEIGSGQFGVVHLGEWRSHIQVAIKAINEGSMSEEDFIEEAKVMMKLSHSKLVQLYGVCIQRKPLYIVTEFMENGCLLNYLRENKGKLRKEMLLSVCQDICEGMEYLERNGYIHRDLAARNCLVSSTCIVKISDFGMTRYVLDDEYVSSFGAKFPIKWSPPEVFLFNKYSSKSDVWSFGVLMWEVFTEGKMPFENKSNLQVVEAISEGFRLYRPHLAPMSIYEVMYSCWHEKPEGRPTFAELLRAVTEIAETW

[37] = molecular target: Tyrosine-protein kinase Tec (Homo sapiens) (UniProt P42680); assay: Inhibition of His-tagged full-length recombinant human TEC cytoplasmic domain expressed in Baculovirus expression system at 1 uM by FRET-based Z'-LYTE assay
[38] = molecular target: Proto-oncogene tyrosine-protein kinase ROS (Homo sapiens) (UniProt P08922); assay: Inhibition of GST-tagged recombinant human ROS cytoplasmic domain (1883 to 2347 residues) expressed in Baculovirus expression system at 1 uM by FRET-based Z'-LYTE assay
Sequence of Proto-oncogene tyrosine-protein kinase ROS (Homo sapiens) (P08922 whole entry, the tested form may be a part): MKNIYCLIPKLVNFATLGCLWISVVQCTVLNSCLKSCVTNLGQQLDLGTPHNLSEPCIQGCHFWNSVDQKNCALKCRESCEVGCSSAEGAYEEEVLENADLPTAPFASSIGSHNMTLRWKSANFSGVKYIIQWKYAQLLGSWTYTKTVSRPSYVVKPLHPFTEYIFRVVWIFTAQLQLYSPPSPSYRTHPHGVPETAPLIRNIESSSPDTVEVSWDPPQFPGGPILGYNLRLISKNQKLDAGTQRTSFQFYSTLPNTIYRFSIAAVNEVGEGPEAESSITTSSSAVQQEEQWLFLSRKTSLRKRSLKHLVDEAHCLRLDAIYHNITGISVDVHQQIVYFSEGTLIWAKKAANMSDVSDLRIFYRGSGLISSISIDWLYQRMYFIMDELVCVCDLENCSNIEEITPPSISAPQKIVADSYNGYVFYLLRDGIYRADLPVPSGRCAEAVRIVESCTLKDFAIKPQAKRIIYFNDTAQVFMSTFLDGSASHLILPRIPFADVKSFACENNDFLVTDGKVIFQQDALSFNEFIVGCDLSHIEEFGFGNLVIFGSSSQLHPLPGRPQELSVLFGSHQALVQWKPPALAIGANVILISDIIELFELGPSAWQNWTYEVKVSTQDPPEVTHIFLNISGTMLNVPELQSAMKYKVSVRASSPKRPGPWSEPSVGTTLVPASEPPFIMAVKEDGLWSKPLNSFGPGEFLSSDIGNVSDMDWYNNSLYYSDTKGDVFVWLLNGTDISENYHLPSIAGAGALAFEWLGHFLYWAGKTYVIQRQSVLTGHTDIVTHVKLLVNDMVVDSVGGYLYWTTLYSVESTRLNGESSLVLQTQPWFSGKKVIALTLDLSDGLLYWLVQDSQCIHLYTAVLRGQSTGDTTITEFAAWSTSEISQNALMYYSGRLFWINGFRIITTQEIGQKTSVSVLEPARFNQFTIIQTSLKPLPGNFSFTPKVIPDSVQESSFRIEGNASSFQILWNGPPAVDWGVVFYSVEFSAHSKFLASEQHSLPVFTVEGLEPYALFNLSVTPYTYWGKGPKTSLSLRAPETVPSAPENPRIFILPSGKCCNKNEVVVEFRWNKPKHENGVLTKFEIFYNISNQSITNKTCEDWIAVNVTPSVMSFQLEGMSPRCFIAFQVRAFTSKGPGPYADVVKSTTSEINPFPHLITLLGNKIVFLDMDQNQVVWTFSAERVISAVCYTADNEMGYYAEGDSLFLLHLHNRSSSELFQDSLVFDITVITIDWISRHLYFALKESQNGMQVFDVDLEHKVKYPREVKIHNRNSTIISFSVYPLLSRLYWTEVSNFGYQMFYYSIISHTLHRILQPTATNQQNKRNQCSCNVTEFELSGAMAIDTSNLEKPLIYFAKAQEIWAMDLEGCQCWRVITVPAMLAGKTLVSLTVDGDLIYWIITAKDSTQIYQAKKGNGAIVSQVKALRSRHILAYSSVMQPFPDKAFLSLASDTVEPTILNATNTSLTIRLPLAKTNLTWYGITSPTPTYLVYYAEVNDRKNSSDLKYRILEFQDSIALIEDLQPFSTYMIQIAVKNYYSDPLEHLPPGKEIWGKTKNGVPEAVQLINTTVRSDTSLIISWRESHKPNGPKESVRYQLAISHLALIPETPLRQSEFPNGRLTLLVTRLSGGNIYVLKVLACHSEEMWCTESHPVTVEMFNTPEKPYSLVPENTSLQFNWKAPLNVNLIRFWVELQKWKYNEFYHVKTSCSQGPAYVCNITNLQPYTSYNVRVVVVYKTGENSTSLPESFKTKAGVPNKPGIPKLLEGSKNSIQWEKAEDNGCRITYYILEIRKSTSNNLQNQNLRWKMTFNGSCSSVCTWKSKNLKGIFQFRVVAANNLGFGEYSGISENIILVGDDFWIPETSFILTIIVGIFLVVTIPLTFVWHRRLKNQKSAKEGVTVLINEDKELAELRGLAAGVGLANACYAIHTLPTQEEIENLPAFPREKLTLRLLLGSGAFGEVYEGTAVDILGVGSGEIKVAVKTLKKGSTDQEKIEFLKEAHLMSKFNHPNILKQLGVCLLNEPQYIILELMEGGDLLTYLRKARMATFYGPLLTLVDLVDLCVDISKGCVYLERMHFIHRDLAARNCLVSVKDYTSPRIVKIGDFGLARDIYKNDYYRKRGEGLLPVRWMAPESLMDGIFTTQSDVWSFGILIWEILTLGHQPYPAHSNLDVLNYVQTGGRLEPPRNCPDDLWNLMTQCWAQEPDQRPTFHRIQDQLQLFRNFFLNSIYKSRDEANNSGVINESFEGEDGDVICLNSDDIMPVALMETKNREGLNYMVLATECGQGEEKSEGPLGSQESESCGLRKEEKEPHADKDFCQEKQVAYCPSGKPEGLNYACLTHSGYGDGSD

[39] = molecular target: Activated CDC42 kinase 1 (Homo sapiens) (UniProt Q07912); assay: Inhibition of GST-tagged recombinant human ACK catalytic domain (110 to 476 residues) expressed in Baculovirus expression system at 1 uM by FRET-based Z'-LYTE assay
[40] = molecular target: Tyrosine-protein kinase Fer (Homo sapiens) (UniProt P16591); assay: Inhibition of GST-tagged recombinant human FER catalytic domain (541 to 822 residues) expressed in Baculovirus expression system at 1 uM by FRET-based Z'-LYTE assay
Sequence of Tyrosine-protein kinase Fer (Homo sapiens) (P16591 whole entry, looked up, the tested form may be a part): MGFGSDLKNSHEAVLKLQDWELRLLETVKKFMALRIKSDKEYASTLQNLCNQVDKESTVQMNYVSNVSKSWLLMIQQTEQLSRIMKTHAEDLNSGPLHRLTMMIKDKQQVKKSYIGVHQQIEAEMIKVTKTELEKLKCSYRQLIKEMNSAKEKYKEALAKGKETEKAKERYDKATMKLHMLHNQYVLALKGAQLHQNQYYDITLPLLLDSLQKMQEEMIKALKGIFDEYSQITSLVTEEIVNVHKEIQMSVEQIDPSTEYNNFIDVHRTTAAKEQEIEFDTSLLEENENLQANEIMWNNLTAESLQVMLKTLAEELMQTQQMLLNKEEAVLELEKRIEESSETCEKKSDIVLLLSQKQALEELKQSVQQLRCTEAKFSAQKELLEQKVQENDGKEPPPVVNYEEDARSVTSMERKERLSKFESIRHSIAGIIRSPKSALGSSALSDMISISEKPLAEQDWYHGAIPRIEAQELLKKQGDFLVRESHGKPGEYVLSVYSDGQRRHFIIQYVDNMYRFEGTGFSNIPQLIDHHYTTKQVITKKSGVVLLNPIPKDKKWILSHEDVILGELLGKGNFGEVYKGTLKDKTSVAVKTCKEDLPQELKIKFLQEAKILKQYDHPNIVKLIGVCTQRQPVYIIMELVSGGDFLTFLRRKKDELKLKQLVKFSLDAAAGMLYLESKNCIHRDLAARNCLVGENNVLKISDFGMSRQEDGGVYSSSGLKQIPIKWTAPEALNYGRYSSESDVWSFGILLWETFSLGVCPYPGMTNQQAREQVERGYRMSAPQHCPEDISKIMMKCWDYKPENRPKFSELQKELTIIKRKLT

[41] = molecular target: Tyrosine-protein kinase JAK3 (Homo sapiens) (UniProt P52333); assay: Inhibition of JAK3 (unknown origin) at 1 uM by cell based assay
[42] = molecular target: Tyrosine-protein kinase Blk (Homo sapiens) (UniProt P51451); assay: Inhibition of BLK (unknown origin) at 1 uM by cell based assay
[43] = molecular target: Proto-oncogene tyrosine-protein kinase ROS (Homo sapiens) (UniProt P08922); assay: Inhibition of ROS (unknown origin) at 1 uM by cell based assay
[44] = Apparent intrinsic clearance in human hepatocytes; type: ADME, cell-based, Hepatocyte; conditions: read-out: CLH(app)
[45] = Drug metabolism in human liver microsomes assessed as demethylation; type: ADME, microsome
[46] = Drug metabolism in human hepatocytes assessed as demethylation; type: ADME, cell-based, Hepatocyte
Hepatocyte = conditions: human, hepatocytes, 1 µM
physchem = conditions: octanol/water
in vitro [47] = conditions: human, liver microsomes
in vitro [48] = conditions: dog, MDCK

C=CC(=O)N[C@@H]1CN(c2nc(Nc3cn(C)nc3OC)c3ncn(C)c3n2)C[C@H]1F [MAVELERTINIB]
CLint scaled [1]: 74 mL/min/kg
CLint scaled [2]: 3 mL/min/kg
CLint scaled [3]: 17 mL/min/kg
fraction unbound at 2 µM [4]: 0.2 to 0.49
fraction unbound at 2 µM [5]: 0.75
fraction unbound at 2 µM [6]: 0.27
inhibition at 10 µM (CYP3A4): < 30%
inhibition at 10 µM (CYP2C9): < 30%
inhibition at 10 µM (CYP1A2): < 30%
IC50 [7]: > 100 µM
half-life at 1 µM [8]: 3.95 h
half-life at 1 µM [9]: 4.65 h
half-life at 1 µM [10]: 5.8 h
clearance [11]: 53 mL/min/kg
clearance [12]: 49 mL/min/kg
clearance [13]: 12 mL/min/kg
Vd [14]: 1.48 L/kg
Vd [15]: 0.66 L/kg
Vd [16]: 0.94 L/kg
half-life [17]: 0.56 h
half-life [18]: 0.28 h
half-life [19]: 1.3 h
bioavailability [20]: 60%
Activity (Rattus norvegicus [21]): Non-Toxic
Activity (Rattus norvegicus [22]): Non-Toxic
Activity (Rattus norvegicus [23]): Non-Toxic
Activity (Canis familiaris [24]): Non-Toxic
Activity (Canis familiaris [25]): Non-Toxic
Activity (Rattus norvegicus [26]): Non-Toxic
Activity (Canis familiaris [27]): Non-Toxic
Activity (Canis familiaris [28]): Non-Toxic
Activity (Canis familiaris [29]): Non-Toxic
Activity (Rattus norvegicus [30]): Non-Toxic
Activity (Rattus norvegicus [31]): Non-Toxic
Activity (Rattus norvegicus [32]): Non-Toxic
Activity (Canis familiaris [33]): Non-Toxic
inhibition [34]: > 50%
inhibition [35]: > 50%
inhibition [36]: > 50%
inhibition [37]: > 50%
inhibition [38]: > 50%
inhibition [39]: > 50%
inhibition [40]: Active
inhibition [41]: Active
inhibition [42]: Active
inhibition [43]: Active
CLint scaled [44]: 3 mL/min/kg
Drug metabolism [45]: Metabolite_Detected
Drug metabolism [46]: Metabolite_Detected
CLH (Hepatocyte): 3 µL/min/mg
logD (physchem): 2
microsomal CLint at […], 1 µM (in vitro [47]): 8 µL/min/mg
Papp (in vitro [48]): 9 ×10⁻⁶ cm/s

Reference: ChEMBL document CHEMBL4177539, “Discovery of N-((3R,4R)-4-Fluoro-1-(6-((3-methoxy-1-methyl-1H-pyrazol-4-yl)amino)-9-methyl-9H-purin-2-yl)pyrrolidine-3-yl)acrylamide (PF-06747775) through Structure-Based Drug Design: A High Affinity Irreversible Inhibitor Targeting Oncogenic EGFR Mutants with Selectivity over Wild-Type EGFR” (J Med Chem, 2017)
